Source: patent publication US9232796B2, “Herbicidal compositions comprising 4-amino-3-chloro-5-fluoro-6-(4-chloro-2-fluoro-3-methoxyphenyl) pyridine-2-carboxylic acid or a derivative thereof and acetyl-CoA carboxylase (ACCase) inhibitors” (DOW AGROSCIENCES LLC, priority 2012, dated 2016)

Columns and labels:
[1] = system: CYPRO; assay: Example II in-water applied, greenhouse, transplanted paddy rice weeds; type: in vivo, Cyperus rotundus L.
Method: (§1) Weed seeds or nutlets of the desired test plant species were planted in puddled soil (mud) prepared by mixing a shredded, non-sterilized mineral soil (50.5 percent silt, 25.5 percent clay, and 24 percent sand, with a pH of about 7.6 and an organic matter content of about 2.9 percent) and water at a 1:1 volumetric ratio. The prepared mud was dispensed in 365 mL aliquots into 16-ounce (oz.) non-perforated plastic pots with a surface area of 86.59 square centimeters (cm^2) leaving a headspace of 3 centimeters (cm) in each pot. Mud was allowed to dry overnight prior to planting or transplanting. Rice seeds were planted in Sun Gro MetroMix® 306 planting mixture, which typically has a pH of 6.0 to 6.8 and an organic matter content of about 30 percent, in plastic plug trays. Seedlings at the second or third leaf stage of growth were transplanted into 860 mL of mud contained in 32-oz. non-perforated plastic pots with a surface area of 86.59 cm^2 4 days prior to herbicide application. The paddy was created by filling the headspace of the pots with 2.5 to 3 cm of water. […] The plants were grown for 4-22 days in a greenhouse with an approximate 14 hr. photoperiod which was maintained at about 29° C. during the day and 26° C. during the night. Nutrients were added as Osmocote® (19:6:12, N:P:K+minor nutrients) at 2 g per 16-oz. pot and 4 g per 32-oz. pot. Water was added on a regular basis to maintain the paddy flood, and supplemental lighting was provided with overhead metal halide 1000-Watt lamps as necessary. The plants were employed for testing when they reached the first through fourth true leaf stage.
(§2) Treatments consisted of the acid or esters of 4-amino-3-chloro-5-fluoro-6-(4-chloro-2-fluoro-3-methoxy-phenyl)pyridine-2-carboxylic acid (compound A) each formulated as an SC (suspension concentrate) and various herbicidal components alone and in combination.
(§3) For formulated compounds, a measured amount was placed in an individual 100 or 200 mL glass vial and was dissolved in a volume of 1.25% (v/v) Agri-Dex® crop oil concentrate to obtain application solutions.
(§4) Applications were made by injecting with a pipetter appropriate amounts of the application solutions, individually and sequentially, into the aqueous layer of the paddy. Control plants were treated in the same manner with the solvent blank. Applications were made so that all treated plant material received the same concentrations of acetone and crop oil concentrate.
(§5) The treated plants and control plants were placed in a greenhouse as described above and water was added as needed to maintain a paddy flood. After approximately 3 weeks the condition of the test plants as compared with that of the untreated plants was determined visually and scored on a scale of 0 to 100 percent where 0 corresponds to no injury or growth inhibition and 100 corresponds to complete kill.
(§6) Colby's equation was used to determine the herbicidal effects expected from the mixtures (Colby, S. R. 1967. Calculation of the synergistic and antagonistic response of herbicide combinations. Weeds 15:20-22.).
(§7) The following equation was used to calculate the expected activity of mixtures containing two active ingredients, A and B: Expected=A+B−(A×B/100)

[2] = system: LEFCH; assay: as above; type: in vivo, Leptochloa chinensis (L.) Nees
Method: as §1, §2, §3, §4, §5, §6, §7

[3] = system: ECHCO; assay: Example V post-emergence field trials in direct-seeded rice; type: in vivo, Echinochloa colona; settings: foliar, field trial Tolima, Colombia
Method: Multiple field trials were conducted under commercial grower field conditions in Tolima, Colombia; Thessaloniki, Greece; Bianze and Copiano, Italy; and Humphrey, Ark., USA. Trials sites were located in commercially grown fields of direct-seeded rice (Oryza sativa) using standard herbicide small plot research methodology. Plots varied from 2 to 3 meter (m)×5 to 8 m (width×length) with 4 replicates per treatment. The rice crop was grown using normal cultural practices for fertilization, seeding, watering, flooding and maintenance to ensure good growth of the crop and the weeds.
All treatments in the field trials were applied using a backpack compressed air/gas sprayer with flat fan nozzles (80° or 110°) calibrated to apply 187 to 300 L/ha spray volume at approximately 200-400 kPa nozzle pressure. Commercially available products of cyhalofop-butyl (Clincher 180EC, Clincher 200EC, and Clincher SF (285 gr ai/L EC)) were mixed in water at appropriate formulated product rates to achieve the desired rates based on a unit area of application (hectare) to achieve the desired rates as shown. Treatments were rate at 19 to 58 days after application (DAA) as compared to the untreated control plants. Visual weed control was scored on a scale of 0 to 100 percent where 0 corresponds to no injury and 100 corresponds to complete kill. […]

COc1c(Cl)ccc(-c2nc(C(=O)O)c(Cl)c(N)c2F)c1F [Compound A Acid, 4-amino-3-chloro-6-(4-chloro-2-fluoro-3-methoxyphenyl)-5-fluoropyridine-2-carboxylic acid]
Visual Weed Control (%) - 21 DAA CYPRO Obs ([1]; 8.75 gae/ha): 0%
Visual Weed Control (%) - 21 DAA CYPRO Obs ([1]; Compound A Acid 8.75 gae/ha): 0%
Visual Weed Control (%) - 21 DAA CYPRO Obs ([1]; Compound A Acid 17.5 gae/ha): 30%
Visual Weed Control (%) - 21 DAA CYPRO Obs ([1]; Compound A Acid 35 gae/ha): 85%
Visual Weed Control (%) - 19 DAA LEFCH Obs ([2]; 42.4 gae/ha in-water): 10%
Visual Weed Control (%) - 21 DAA LEFCH Obs ([2]; in-water, 17.5 gae/ha): 0%
Visual Weed Control (%) - 21 DAA LEFCH Obs ([2]; in-water, 35 gae/ha): 20%

CCC/C(=N\OCC(C)Oc1ccc(Cl)cc1)C1=C(O)CC(C2CCCSC2)CC1=O (centres unmarked) [Profoxydim, 2-[1-[[2-(4-chlorophenoxy)propoxy]imino]butyl]-3-hydroxy-5-(tetrahydro-2H-thiopyran-3-yl)-2-cyclohexen-1-one, reference compound]
Visual Weed Control (%) - 21 DAA LEFCH Obs ([2]; in-water, 25 gai/ha): 85%

CCCCOC(=O)[C@@H](C)Oc1ccc(Oc2ccc(C#N)cc2F)cc1 [Cyhalofop-butyl, butyl(2R)-2-[4-(4-cyano-2-fluorophenoxy)phenoxy]propanoate, reference compound]
Visual Weed Control (%) - 19 DAA ECHCO Obs ([3]; 280 gai/ha): 0%
Visual Weed Control (%) - 19 DAA LEFCH Obs ([2]; 180 gai/ha, in-water): 75%

CCOC(=O)[C@@H](C)Oc1ccc(Oc2cnc3cc(Cl)ccc3n2)cc1 [Quizalofop-p-ethyl, ethyl(2R)-2-[4-[(6-chloro-2-quinoxalinyl)oxy]phenoxy]propanoate, reference compound]
Visual Weed Control (%) - 21 DAA CYPRO Obs ([1]; 15 gai/ha): 0%
Visual Weed Control (%) - 21 DAA CYPRO Obs ([1]; 30 gai/ha): 0%

COc1c(Cl)ccc(-c2nc(C(=O)OCc3ccccc3)c(Cl)c(N)c2F)c1F [Compound A Benzyl Ester, benzyl ester of 4-amino-3-chloro-5-fluoro-6-(4-chloro-2-fluoro-3-methoxy-phenyl)pyridine-2-carboxylic acid]
Visual Weed Control (%) - 20 DAA CYPRO Obs ([1]; 4.38 gae/ha): 50%
Visual Weed Control (%) - 21 DAA CYPRO Obs ([1]; 4.38 gae/ha): 20%
Visual Weed Control (%) - 20 DAA CYPRO Obs ([1]; 8.75 gae/ha): 100%
Visual Weed Control (%) - 20 DAA CYPRO Obs ([1]; 17.5 gae/ha): 100%
Visual Weed Control (%) - 19 DAA ECHCO Obs ([3]; 12 gae/ha): 76%
